The values below are quoted from earlier work in paper PMC9019041, “Structural insights into the peptide selectivity and activation of human neuromedin U receptors” (Nature Communications, 2022).

Series [1] concerns neuromedin U receptor 1 (NMUR1). As to conditions: low selectivity; cited from earlier work. The text has this:
(§1) Human neuromedin U (NMU) is a 25-amino-acid endogenous peptide that was first discovered in extracts of the porcine spinal cord with a potent smooth muscle contractile activity. It is also involved in pleiotropic physiological functions, including the regulation of blood pressure, food uptake, nociception, pain perception, bone formation, and immunological responses. More recently, human neuromedin S (NMS), a 33-amino-acid endogenous peptide, was discovered, which shares an identical C-terminal heptapeptide with NMU. Unlike NMU, which is widely distributed in the central nervous system ( ...

Series [2] has as its system neuromedin U receptor 2 (NMUR2). As to conditions: low selectivity; cited from earlier work.
Text: as §1

Where no end group is shown, it is not given here.

Turning to “neuromedin S (ILQRGSGTAAVDFTKKDHTATWGRPFFLFRPRN-NH2) [NMS, Human 33-amino-acid endogenous neuropeptide sharing the C-terminal heptapeptide with NMU; agonist of NMUR1 and NMUR2 (GenScript)]”, the affinity result in series [1] and in series [2] was “sub-nanomolar” in each case.
